Assay results taken from US20060160070A1, “Association-based epitome design” (Microsoft Corporation, priority 2004, published 2006).

Key:
HLA A*0301 [1] = molecular target: T1, HLA A*0301 (Homo sapiens, UniProt P04439); assay: ITOPIA peptide binding assay; conditions: 1.11×10^−4M of peptide
T1 construct: purchased
Experimental: (§1) Peptide binding, off-rate and affinity were measured according to the protocols described in the ITOPIA Epitope Discovery System Customer Guide. To conduct the experiments, ninety-six (96) micro-titer plates coated with MHC molecules representing the HLA alleles listed in Table 9 were used to identify candidate peptides. Determinations were performed in duplicate using an ELISA plate reader. The peptide binding assay used measures the ability of individual peptides to bind to the HLA molecules under standardized optimal binding conditions. The assay was performed for all the test peptides across the selected HLA alleles. The test peptides identified as “binders” were characterized further in terms of affinity and dissociation experiments. The off-rate assay used evaluates the dissociation of previously bound peptide at defined time points (expressed as the t1/2 value). The affinity assay used measures the relative binding affinities for the MHC molecules determined by incubating candidate peptides identified in the initial peptide binding assay at increasing concentrations (expressed as quantity of peptide needed to achieve 50% binding or ED50 value).
(§2) The binding of the test peptides (Table 8) to the HLA molecules (Table 9) was performed at a concentration of 1.11×10^−4M of peptide under optimal, standardized test conditions. A control peptide was run in parallel on the same plate and at the same concentration as the test peptides. […] The level of binding is expressed as a percent of positive control peptide binding for each allele.

HLA A*0201 [2] = molecular target: T2, HLA A*0201 (Homo sapiens, UniProt P04439, D140Y/D185E/D98H/E176V/E277Q/G131W/G231S/I119V/I121R/I166T/I218V/L300P/L318F/N151K/N90K/P208A/P217A/Q86G/Q94H/R138H/R169H/T345S); assay: ITOPIA peptide binding assay; conditions: 1.11×10^−4M of peptide
Experimental: as §1, §2

HLA A*2402 [3] = molecular target: T3, HLA A*2402 (Homo sapiens, UniProt P04439, D101N/D140Y/D185E/E176V/E190D/F33S/G103R/G107R/I119L/I121M/I306V/K335N/L105A/L180Q/L300P/N151K/N90K/Q86E/Q94H/R106L/R138H/R89G/T104I/T345S/V100E/W191G/Y123F); assay: ITOPIA peptide binding assay; conditions: 1.11×10^−4M of peptide
Experimental: as §1, §2

HLA B*0702 [4] = molecular target: T4, HLA B*0702 (Homo sapiens, UniProt P01889); assay: ITOPIA peptide binding assay; conditions: 1.11×10^−4M of peptide
T4 construct: purchased
Experimental: as §1, §2

HLA B*0801 [5] = molecular target: T5, HLA B*0801 (Homo sapiens, UniProt P01889, A93T/A95T/D138N/E176V/E187T/K202T/Q94N/R180D/S35A/V36M/Y33D/Y91F); assay: ITOPIA peptide binding assay; conditions: 1.11×10^−4M of peptide
T5 construct: purchased
Experimental: as §1, §2

HLA A*1101 [6] = molecular target: T6, HLA A*1101 (Homo sapiens, UniProt P04439, A114D/D185E/E176A/F33Y/L180Q/S129P/T187R); assay: ITOPIA peptide binding assay; conditions: 1.11×10^−4M of peptide
T6 construct: purchased
Experimental: as §1, §2

HLA B*1501 [7] = molecular target: T7, HLA B*1501 (Homo sapiens, UniProt P01889, A329T/A93T/A95T/C349S/D201E/D98Y/E187L/E204Q/E69M/E70A/K202T/N87E/Q94N/R155S/R180W/S121R/S35A/S48A/V306I/V36M/Y140S/Y91S); assay: ITOPIA peptide binding assay; conditions: 1.11×10^−4M of peptide
T7 construct: purchased
Experimental: as §1, §2

HLA A*0101 [8] = molecular target: T8, HLA A*0101 (Homo sapiens, UniProt P04439, A114D/A174V/A182V/D101N/D185E/E176A/E190D/L180R/Q94H/R68K/S129P/T187R/V100A/V91M/W191G); assay: ITOPIA peptide binding assay; conditions: 1.11×10^−4M of peptide
T8 construct: purchased
Experimental: as §1, §2

HLA A*0301 [9] = molecular target: T1, HLA A*0301; assay: ITOPIA off-rate assay; format: binding; conditions: 37° C., one-phase exponential decay
Experimental: as §1
(§3) The peptides initially identified as binders were evaluated for stability based on their ability to remain bound to MHC molecules at 37° C. at time points 0, 0.5, 1, 1.5, 2, 4, 6 and 8 hours. […] The values obtained for each time point (in duplicate) are expressed (Table 11) as a percentage of the positive control. To calculate the t1/2 and goodness-of-fit, as measured by r^2, for each peptide, a one-phase exponential decay curve, with a plateau given equal to 0, was generated using […] PRISM software.

HLA A*0201 [10] = molecular target: T2, HLA A*0201; assay: ITOPIA off-rate assay; format: binding; conditions: 37° C., one-phase exponential decay
Experimental: as §1, §3

HLA A*1101 [11] = molecular target: T6, HLA A*1101; assay: ITOPIA off-rate assay; format: binding; conditions: 37° C., one-phase exponential decay
Experimental: as §1, §3

HLA A*0301 [12] = molecular target: T1, HLA A*0301; assay: Multi-parametric analysis iScore; format: binding; set-up: scale not given here; conditions: index integrating t1/2 and ED50
Experimental: (§4) Multi-parametric analysis was performed to integrate the half-life (t½) and ED50 parameters in an index (iScore). The iScore (Table 13) reflects the capability of a peptide to reconstitute with MHC molecules in a stable complex, defining its overall level of binding.

HLA A*0201 [13] = molecular target: T2, HLA A*0201; assay: Multi-parametric analysis iScore; format: binding; set-up: scale not given here; conditions: index integrating t1/2 and ED50
Experimental: as §4

HLA A*2402 [14] = molecular target: T3, HLA A*2402; assay: Multi-parametric analysis iScore; format: binding; set-up: scale not given here; conditions: index integrating t1/2 and ED50
Experimental: as §4

HLA B*0702 [15] = molecular target: T4, HLA B*0702; assay: Multi-parametric analysis iScore; format: binding; set-up: scale not given here; conditions: index integrating t1/2 and ED50
Experimental: as §4

HLA B*0801 [16] = molecular target: T5, HLA B*0801; assay: Multi-parametric analysis iScore; format: binding; set-up: scale not given here; conditions: index integrating t1/2 and ED50
Experimental: as §4

HLA A*1101 [17] = molecular target: T6, HLA A*1101; assay: Multi-parametric analysis iScore; format: binding; set-up: scale not given here; conditions: index integrating t1/2 and ED50
Experimental: as §4

HLA B*1501 [18] = molecular target: T7, HLA B*1501; assay: Multi-parametric analysis iScore; format: binding; set-up: scale not given here; conditions: index integrating t1/2 and ED50
Experimental: as §4

HLA A*0101 [19] = molecular target: T8, HLA A*0101; assay: Multi-parametric analysis iScore; format: binding; set-up: scale not given here; conditions: index integrating t1/2 and ED50
Experimental: as §4

HLA A*2402 [20] = molecular target: T3, HLA A*2402; assay: ITOPIA off-rate assay; format: binding; conditions: 37° C., one-phase exponential decay
Experimental: as §1, §3

HLA B*0702 [21] = molecular target: T4, HLA B*0702; assay: ITOPIA off-rate assay; format: binding; conditions: 37° C., one-phase exponential decay
Experimental: as §1, §3

HLA B*0801 [22] = molecular target: T5, HLA B*0801; assay: ITOPIA off-rate assay; format: binding; conditions: 37° C., one-phase exponential decay
Experimental: as §1, §3

HLA B*1501 [23] = molecular target: T7, HLA B*1501; assay: ITOPIA off-rate assay; format: binding; conditions: 37° C., one-phase exponential decay
Experimental: as §1, §3

target cells = conditions: in vitro; compared with consensus epitope; cited from earlier work

Sequence | level of binding, percent of positive control peptide binding (HLA A*0301 [1]) | level of binding, percent of positive control peptide binding (HLA A*0201 [2]) | level of binding, percent of positive control peptide binding (HLA A*2402 [3]) | level of binding, percent of positive control peptide binding (HLA B*0702 [4]) | level of binding, percent of positive control peptide binding (HLA B*0801 [5]) | level of binding, percent of positive control peptide binding (HLA A*1101 [6]) | level of binding, percent of positive control peptide binding (HLA B*1501 [7]) | level of binding, percent of positive control peptide binding (HLA A*0101 [8]) | A*0201 t1/2 (HLA A*0201 [10]) [h] | A*1101 t1/2 (HLA A*1101 [11]) [h] | iScore (HLA A*0301 [12]) | iScore (HLA A*0201 [13]) | iScore (HLA A*2402 [14]) | iScore (HLA B*0702 [15]) | iScore (HLA B*0801 [16]) | iScore (HLA A*1101 [17]) | iScore (HLA B*1501 [18]) | iScore (HLA A*0101 [19]) | B*0702 t1/2 (HLA B*0702 [21]) [h] | B*0801 t1/2 (HLA B*0801 [22]) [h] | further results
KLAGRWPVK [compound 71] | 114% of positive control | 26% of positive control | 11% of positive control | 0% of positive control | 4% of positive control | 160% of positive control | 2% of positive control | 0% of positive control | 1.3 | 2.6 | 0.606 | 0.084 | 0 | 0 | 0 | 0.834 | 0 | 0 | – | – | A*0301 t1/2 (HLA A*0301 [9]): 4.6 h
KLAGRWPVT [compound 157] | 9% of positive control | 51% of positive control | 8% of positive control | 3% of positive control | 4% of positive control | 19% of positive control | 6% of positive control | 2% of positive control | 1.1 | 1.6 | 0 | 0.129 | 0 | 0 | 0 | 0.039 | 0 | 0 | – | – | –
RGRQKVVSI [compound 153] | 0% of positive control | 6% of positive control | 29% of positive control | 88% of positive control | 71% of positive control | 6% of positive control | 7% of positive control | 0% of positive control | – | – | 0 | 0 | 0.050 | 0.271 | 0.165 | 0 | 0 | 0 | 1.3 | 1.2 | A*2402 t1/2 (HLA A*2402 [20]): 1.8 h
RGRQKVVSL [compound 68] | 0% of positive control | 5% of positive control | 17% of positive control | 96% of positive control | 73% of positive control | 0% of positive control | 55% of positive control | 0% of positive control | – | – | 0 | 0 | 0 | 0.307 | 0.100 | 0 | 0.106 | 0 | 1.1 | 1.2 | B*1501 t1/2 (HLA B*1501 [23]): 3.5 h
TAFTIPST | – | – | – | – | – | – | – | – | – | – | – | – | – | – | – | – | – | – | – | – | increase in the peptide concentration required to sensitize target cells for 50% lysis (SD50) by CTLs (target cells): hundred-fold increase
